In patent publication US12454703B2, “Controllable transcription” (Cambridge Enterprise Limited (GB/GB), priority 2016, dated 2025):

Columns and labels:
[1] = tested on: EGFPd2 homozygous sOPTiKO hESCs; test: Inducible CRISPR/Cas9 knockout of EGFPd2 reporter in hESCs; assay type: cell-based, human
Experimental: For single site OPTIKO, AAVS1 targeting was performed by nucleofection. hESCs pre-treated for 16 h with 10 μM Y-27632 (Tocris) were dissociated to clumps of 2-8 cells using Accutase (Gibco), and 2×10^6 cells were nucleofected in 100 μl with a total of 12 μg of DNA (4 μg each for the two ZFN plasmids, and 2 μg each for the two targeting vectors) using the Lonza P3 Primary Cell 4D-Nucleofector X Kit and the cycle CA-137 on a Lonza 4D-Nucleofector System, all according to manufacturer's instructions. Nucleofected hESCs were plated onto a feeder layer of irradiated DR4 (puromycin and neomycin resistant) mouse embryonic fibroblasts and cultured in KSR media supplemented with 4 ng ml-1 FGF2 and 10 μM Y-27632 (this last only for the first 24 h). After 4 days, hPSC colonies carrying both puromycin and neomycin resistance gene were selected for 7-10 days with 25 μg ml-1 of Geneticin (G418 Sulfate, Gibco) and 0.5 μg ml-1 Puromycin. Individual clones were then picked and expanded in feeder-free conditions.
Unless otherwise described in the figure legends or Examples, tetracycline hydrochloride (sigma-Aldrich) was used at 1 μg ml^−1 to induce gene knockdown or knockout. Induction of neurons Pluripotent OPTi-NGN2 cells were dissociated into single cells with TrypLE and plated onto Matrigel (35 μg/cm^2, Scientific Laboratory Supplies) coated dishes at a density of 75.000 cells per well of a 12 well plate. […] After 2 days of induction, the medium was switched to Neurobasal-medium supplemented with Glutamax (100×), B27 (50×, Gibco), BDNF (10 ng/ml, Peprotech), NT3 (10 ng/ml, R&D Systems), Penicillin/Streptomycin (1%), and doxycycline (1 μg/ml).

induced myocytes = test: Contraction of induced skeletal myocytes; assay type: cell-based, human; details: nanomolar concentrations

Experimental for OPTi-MYOD1 hPSCs: Pluripotent OPTi-MYOD1 cells were dissociated into single cells with TrypLE and plated onto gelatine/MEF-medium coated dishes at a density of 100.000 cells per well of a 12 well plate. Forward programming was initiated 24-48 hours after the split. […] After 5 days of induction, the medium was supplemented with CHIR99021 (3 μM, Tocris) and heat-inactivated horse serum (2%, Gibco) to enhance maturation.
For analysis of EGFP expression cells were harvested with TrypLE Select (Gibco) for 5-10 minutes at 37° C. to obtain a single cell suspension. Following a wash with PBS, cells were resuspended in ice-cold PBS supplemented with DAPI (10 μg/ml), and incubated for 5 minutes on ice. Cells were analyzed using a Cyan ADP flow-cytometer to determine the levels of EGFP expression of viable cells (DAPI negative). For staining and analysis of myosin heavy chain expression cells were harvested with TrypLE Select (as for EGFP expression analysis), washed once with PBS, and fixed and permeabilized with Cytofix/Cytoperm solution (BD Biosciences). Subsequently, cells were washed and blocked in Perm/Wash buffer (BD Biosciences) supplemented with 3% bovine serum albumin (BSA) at +4° C. overnight. […] After three washes with Perm/Wash buffer cells were analyzed with a Cyan ADP flowcytometer to determine the levels of MHC expression. […]

CC1=C(/C=C/C(C)=C/C=C/C(C)=C/C(=O)O)C(C)(C)CCC1 [all-trans retinoic acid]
conversion into myogenin and myosin heavy chain (MHC) double-positive myocytes (OPTi-MYOD1 hPSCs; in conjunction with MYOD1 overexpression, by day 5 after induction): rapid and near-complete conversion | nature of the RA effect on myocyte conversion (OPTi-MYOD1 hPSCs; mediated through RA-receptor isoforms RARa and RARB): concentration dependent

CN(C)[C@@H]1C(O)=C(C(N)=O)C(=O)[C@@]2(O)C(O)=C3C(=O)c4c(O)cccc4[C@@](C)(O)[C@H]3C[C@@H]12 [tetracycline]
reduction in EGFPd2 fluorescence ([1]; five days following tetracycline induction, EGFPd2 homozygous cells): 50% | knockout ([1]; optimal gRNA sequence, 2 days of induction): up to 90% | EGFPd2 homozygous cells with full loss of EGFPd2 fluorescence ([1]; prolonged treatment with tetracycline): up to 75% | knockout efficiency ([1]; simultaneous induction of three copies of the same gRNA): 95%

C[N+](C)(C)CCOC(N)=O [carbachol]
muscle fiber contraction (induced myocytes): complete muscle fiber contraction
